Test results taken from paper PMC3089059 (Bioorganic & medicinal chemistry, 2011).

Key:
JNK1 [1] = target: T1, JNK1 (Homo sapiens, UniProt P45983); assay: DELFIA assay, displacement of biotinylated pepJIP1 from GST-JNK1; assay type: binding
Plasma stability assay = assay type: in vitro ADME; conditions: after 60 min of incubation in rat plasma, 1 μM, 37 °C
[2] = Microsomal stability assay; assay type: in vitro ADME; conditions: after 60 min of incubation in rat microsomal preparations, 4 μM, NADPH
JNK1 [3] = target: T1, JNK1; assay type: biochemical
JNK1 [4] = target: JNK1 (Homo sapiens, UniProt P45984); assay: biochemical; assay type: binding; conditions: ITC
JNK1 (Homo sapiens, UniProt P45984), sequence (P45984 whole entry): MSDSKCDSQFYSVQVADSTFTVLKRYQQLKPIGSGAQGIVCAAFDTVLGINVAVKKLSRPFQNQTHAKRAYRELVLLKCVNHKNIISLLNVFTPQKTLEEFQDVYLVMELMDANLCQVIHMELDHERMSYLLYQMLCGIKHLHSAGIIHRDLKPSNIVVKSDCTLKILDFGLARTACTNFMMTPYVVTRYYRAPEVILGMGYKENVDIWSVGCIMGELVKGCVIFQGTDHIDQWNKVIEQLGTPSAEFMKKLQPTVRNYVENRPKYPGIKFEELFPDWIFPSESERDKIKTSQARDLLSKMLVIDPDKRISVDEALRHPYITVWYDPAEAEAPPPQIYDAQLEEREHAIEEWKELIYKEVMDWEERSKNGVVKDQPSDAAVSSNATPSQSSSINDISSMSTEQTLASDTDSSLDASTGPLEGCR

T1 sequence (P45983 whole entry): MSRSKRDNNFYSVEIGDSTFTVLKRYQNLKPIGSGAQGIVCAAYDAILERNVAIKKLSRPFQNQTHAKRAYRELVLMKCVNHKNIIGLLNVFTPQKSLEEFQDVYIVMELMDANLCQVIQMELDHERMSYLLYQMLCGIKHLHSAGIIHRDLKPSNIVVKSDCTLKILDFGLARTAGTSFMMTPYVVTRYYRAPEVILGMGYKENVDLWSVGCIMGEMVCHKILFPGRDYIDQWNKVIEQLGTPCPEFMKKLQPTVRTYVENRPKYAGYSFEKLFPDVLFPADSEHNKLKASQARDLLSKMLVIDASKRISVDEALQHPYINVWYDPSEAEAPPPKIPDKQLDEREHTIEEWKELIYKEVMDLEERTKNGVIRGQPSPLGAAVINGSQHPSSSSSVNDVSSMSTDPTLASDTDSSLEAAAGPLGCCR

| Structure (SMILES) | plasma stability (Plasma stability assay) | degraded [2] | JNK1 inhibitory activity (in words) (JNK1 [3]) | other results |
| --- | --- | --- | --- | --- |
| Cc1sc(NC(=O)Cc2cccc3ccccc23)c(C(N)=O)c1C [Compound 1, 4,5-dimethyl-2-(2-(naphthalen-1-yl)acetamido)thiophene-3-carboxamide] |  |  |  | IC50 (JNK1 [1]): 15.8 µM |
| NC(=O)c1ccsc1NC(=O)Cc1cccc(Br)c1 [Compound 33] | basically unaltered | 74% |  |  |
| COC(=O)c1ccsc1NC(=O)Cc1cccc2ccccc12 [Compound 5b] |  |  | significant loss of JNK1 inhibitory activity |  |
| N#Cc1ccsc1NC(=O)Cc1cccc2ccccc12 [Compound 5c] |  |  | significant loss of JNK1 inhibitory activity |  |
| O=C(Cc1cccc2ccccc12)Nc1sccc1C(=O)O [Compound 5a] |  |  | significant loss of JNK1 inhibitory activity |  |
| NC(=O)c1ccsc1NC(=O)Cc1csc2ccccc12 [Compound 25] | basically unaltered | 85% |  | Kd (JNK1 [4]; in presence of ATP (saturating non-hydrolizable ATP)): 1.1 µM; Kd (JNK1 [4]; in presence of pepJIP1 (saturating)): 3.1 µM; mode of inhibition versus ATP (Lineweaver-Burk) (JNK1 [3]; increasing ATP concentrations): ATP competitive inhibitor; mode of inhibition versus substrate ATF2 (Lineweaver-Burk) (JNK1 [3]; increasing substrate ATF2 concentrations): mixed substrate competitive inhibitor |
| NC(=O)c1ccc(NC(=O)Cc2cccc3ccccc23)s1 [Compound 5f] |  |  | completely inactive |  |
| NC(=O)c1ccsc1NC(=O)Cc1ccccc1Cl [Compound 26] | basically unaltered | 70% |  |  |
